# Data: patent US20240335395A1, “COMPOSITIONS AND METHODS FOR PREVENTING AND/OR TREATING DISEASE ASSOCIATED WITH IL-23 EXPRESSION” (ALLSPIM, priority 2021, published 2024)
# System: IL-17/IL-23 and TNF signaling pathway-associated cytokine genes and chemokine genes
# Assay: Transcription of IL-17/IL-23 and TNF signature genes in LPS-stimulated THP-1 cells (qPCR)
# Type: cell-based, human
# Details: 2 h; 2,4-D 5-20 μM, DEX 20-80 ng/ml
# Experimental: Sample Collection and Preparation. THP-1 cells, a human leukemia monocyte-derived cell line, have been widely used as a model to study the modulation of the immune response and the function of monocytes and monocyte-derived macrophages. Here, lipopolysaccharide (LPS)-stimulated THP-1 cells were used as a model to study the cytokine storm in vitro (Chanput et al., 2014). THP-1 cells (purchased from American Type Culture Collection, Rockville, MD) were grown in RPMI 1640 culture medium (Gibco) supplemented with 10% fetal bovine serum (FBS) (Gibco, UK), 0.05 mM 2-mercaptoethanol, and 1% penicillin/streptomycin (Invitrogen) at 37° C. in 5% CO2 in a humidified incubator. Cultured cells were plated into culture plates in appropriate volumes with a cell density of 5×10^5 cells/ml. 2,4-D was purchased from Wuhan ChemFaces Biochemical Co., Ltd (Hubei, China) and tested for cytotoxicity in THP-1 cells overnight using a commercial MTT Cell Proliferation and Cytotoxicity Assay Kit (Beyotime, Shanghai, China). […]
# Real-Time Quantitative PCR. Real-time quantitative PCR was performed in triplicate using the TB Green qPCR master mix (Takara Biomedical Technology Co., Ltd, Dalian, China) on an ABI 7500 Real-Time PCR System (Thermo, USA). […] The ΔΔCT method was used to quantify relative mRNA levels as described above in Example 1 (Applied Biosystems). Data are expressed as mean±SD. […]
smiles,measurement,value
"COc1cc(O)c(OC)c(O)c1C(=O)/C=C/c1ccccc1 [2,4-D, 2′,4′-dihydroxy-3′,6′-dimethoxychalcone]",suppression of transcription of IL-17/IL-23 and TNF signatures,63-143 fold
